This is an account of results in article PMC9516381 (Biochemistry and Biophysics Reports, 2022).

Assay [1] has as its system h2E2 anti-cocaine mAb. Kind of assay: Isothermal titration calorimetry. In kind it is binding. Conditions: ITC, PBS, 20°C, mean ± SD of 4 experiments; for ΔG: calculated as ΔG = ΔH – TΔS; for Kd: reciprocal of fitted K.
The target in assay [2] is h2E2 anti-cocaine mAb. Conditions: intrinsic fluorescence quenching, 20 °C, TBS buffer; cited from earlier work.
The target of a further assay is mAb08 anti-cocaine mAb. Particulars: ITC; cited from earlier work.
Another assay addresses h2E2 Fc fragment (Homo sapiens, UniProt P01857). Put plainly: ITC of ligand binding to h2E2 Fc fragment. Particulars: PBS pH 7.4, 20°C.

Like-named read-outs stand apart in the source and are kept apart here.

Sequence of h2E2 Fc fragment (P01857 1-330 isoform P01857-1): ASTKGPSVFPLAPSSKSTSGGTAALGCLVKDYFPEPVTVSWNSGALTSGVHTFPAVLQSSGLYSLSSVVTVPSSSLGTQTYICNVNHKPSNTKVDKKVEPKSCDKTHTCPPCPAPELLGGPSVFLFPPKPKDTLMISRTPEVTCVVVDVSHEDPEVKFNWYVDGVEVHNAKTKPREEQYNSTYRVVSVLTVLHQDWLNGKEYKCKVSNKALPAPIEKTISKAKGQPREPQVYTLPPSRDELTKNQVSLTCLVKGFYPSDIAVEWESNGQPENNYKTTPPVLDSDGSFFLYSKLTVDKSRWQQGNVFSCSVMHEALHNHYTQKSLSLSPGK

With `CN1[C@H]2CC[C@@H]1[C@@H](C(=O)O)[C@@H](OC(=O)c1ccccc1)C2` [Benzoylecgonine, benzoylecgonine], in the assay on h2E2 anti-cocaine mAb [1], the ΔG is -9.755 ± 0.106 kcal/mol, the “K (association)” value was determined as 1.88e+07 ± 3.26e+06 M⁻¹, the ΔH was -15.44 ± 0.833 kcal/mol and the ΔS is −19.4 ± 2.5 cal/mol/deg. Moreover, on h2E2 anti-cocaine mAb [1], the Kd came to 54.4 ± 8.77 nM. The ΔH entry in the assay on h2E2 anti-cocaine mAb [1] (listed as benzoylecgonine) is listed as “≈ -15,400 cal/mol”. For the same compound, on h2E2 anti-cocaine mAb [2], the Kd was around 20 nM.
Take `CCOC(=O)[C@@H]1C2CCC(C[C@@H]1OC(=O)c1ccccc1)N2C` (stereo partly drawn) [Cocaethylene, cocaethylene]: in the assay with h2E2 anti-cocaine mAb [1], the ΔG is -11.152 ± 0.302 kcal/mol, the “K (association)” value was determined as 2.31e+08 ± 1.3e+08 M⁻¹, the ΔH is -13.988 ± 0.279 kcal/mol and the ΔS is recorded as −9.67 ± 1.98 cal/mol/deg. Moreover, binding on h2E2 anti-cocaine mAb [1] was characterised by a dissociation constant (Kd) of 5.29 ± 2.4 nM. On h2E2 anti-cocaine mAb [2], the Kd was around 1 nM.
For `COC(=O)[C@H]1[C@@H](OC(=O)c2ccccc2)C[C@@H]2CC[C@H]1N2C` [Cocaine, cocaine], the Kd at mAb08 anti-cocaine mAb was 2.5 nM. In addition, in the assay on h2E2 anti-cocaine mAb [1], the ΔG is -10.881 ± 0.187 kcal/mol, the “K (association)” value was 1.33e+08 ± 4.54e+07 M⁻¹, the ΔH was -15.41 ± 0.368 kcal/mol and the ΔS is on record as −15.4 ± 1.8 cal/mol/deg. The compound also returned a Kd on h2E2 anti-cocaine mAb [1] of 8.13 ± 2.37 nM. Also, in the assay with h2E2 anti-cocaine mAb [1] (listed as cocaine), the ΔH entry is recorded as “≈ -15,400 cal/mol” and the Kd was around 8 nM. On h2E2 anti-cocaine mAb [2], the Kd was around 4 nM.
As for `COC(=O)[C@@H]1[C@H]2CC[C@@H](C[C@@H]1O)N2C` [Ecgonine Methyl Ester, ecgonine methyl ester], in the assay with h2E2 anti-cocaine mAb [1], the ΔG was -6.381 ± 0.247 kcal/mol, the “K (association)” value worked out at 61375 ± 25024 M⁻¹, the ΔH is -2.336 ± 0.452 kcal/mol and the ΔS turned out to be 13.80 ± 2.33 cal/mol/deg. The compound also displayed a Kd at h2E2 anti-cocaine mAb [1] of 18700 ± 8310 nM. Also, on h2E2 Fc fragment, the “binding to the Fc fragment” value is on record as “no EME binding to the Fc fragment”.
As for `COC(=O)[C@H]1[C@@H](OC(=O)c2ccccc2)C[C@@H]2CC[C@H]1N2` [Norcocaine, norcocaine], in the assay on h2E2 anti-cocaine mAb [1], the ΔG is -7.85 ± 0.027 kcal/mol, the “K (association)” value turned out to be 704500 ± 36098 M⁻¹, the ΔH was -3.064 ± 0.15 kcal/mol and the ΔS worked out at 16.3 ± 0.58 cal/mol/deg. Moreover, binding on h2E2 anti-cocaine mAb [1] was characterised by a dissociation constant (Kd) of 1420 ± 72 nM.
